Article PMC6289163 (Tuberculosis (Edinburgh, Scotland), 2018)

Assays:
[1] = test system: intracellular M. tuberculosis H37Rv in primary human macrophages; format: cell-based, Mycobacterium tuberculosis; details: positive control, 0.1 μg/ml, 0.7 μM; 6 days; not shown
BCG expressing luxAB = format: cell-based, Mycobacterium bovis bacillus Calmette-Guerin (BCG) Montreal; details: 6.3-100 μM

## NNC(=O)c1ccncc1 [Isoniazid]
[1]
  intracellular killing: same intracellular killing as 50 μM of NZX

## WKWLKKWIK-OHxTFA [WKWLKKWIKG-OHxTFA]
BCG expressing luxAB
  mycobacterial inhibitory capacity: bacterial killing capacity was overall lower than that of WKWLKKWIKG-NH2xHOAc
